Source: patent US7119063B2, “Memory-enhancing peptides and the use thereof” (Shanghai Cas Intide Biotech Co., Ltd., priority 2000, dated 2006)

System: learning and memory process of mouse
Assay: platform-jumping electrical-shock avoidance test, learning and 24 h memory, scopolamine-induced impediment
Assay type: in vivo
Conditions: for Memory Results EN / Memory Results RT / Learning Results EN / Learning Results RT: scopolamine 1 mg/kg; for Memory Results EN / Memory Results RT: memory test 24 hrs later; for Learning Results EN / Learning Results RT: training trial
Description: The pharmacological tests of memory-enhancing peptide in this invention have been performed as following: the animals have been divided into three groups: drug administration group, control group and model group, with each group administrated with memory-enhancing peptide, saline and scopolamine respectively. In the test, the groups except control group were injected with scopolamine after the administration of medicine about 50 min., 10 min. later, the training began. First, the animals will be put into reaction box for 3 min. before each trails to familiarize them with the environment. Then, the reaction box are charged with 36V alternating current. When the animal subjects to electrical shock, it will jump up to the central platform to avoid harmful stimulation as a normal response. Most of animals may be return to the copper curdles twice or even more times, but they will jump back to the platform swiftly as the results of electrical shock. Each test trail will be performed for 5 min. and two following indices will be used to represent the learning results: (I) the number of total error (EN) during the whole training period; (2) the reaction time (RT) for the first returning to the copper curdle in the trail. The trails will repeat again 24 hrs later as memory test.

Compound | Memory Results EN (drug 100 μg/kg) | Memory Results RT (drug 100 μg/kg) | Learning Results EN (drug 100 μg/kg, number of total errors) | Learning Results RT (drug 100 μg/kg, reaction time for first return to the copper curdle) | effect on memory and learning impediment induced by scopolamine, compared with model group (0.5 μg and 1 μg/kg, longer incubation period and lesser error numbers, P<0.01) | effect on memory and learning impediment induced by scopolamine, compared with Huperzine A (100 μg/kg) (0.5 μg/kg and 1 μg/kg) | Memory Results EN (drug 0.25 μg/kg) | Memory Results RT (drug 0.25 μg/kg) | Learning Results EN (drug 0.25 μg/kg) | Learning Results RT (drug 0.25 μg/kg) | Memory Results EN (drug 0.5 μg/kg) | Memory Results RT (drug 0.5 μg/kg) | Learning Results EN (drug 0.5 μg/kg) | Learning Results RT (drug 0.5 μg/kg) | Memory Results EN (drug 1 μg/kg) | Memory Results RT (drug 1 μg/kg) | Learning Results EN (drug 1 μg/kg) | Learning Results RT (drug 1 μg/kg) | effect on memory and learning impediment induced by scopolamine (summary of Table 1) (mouse, in vivo)
C/C=C1\[C@H]2C=C(C)C[C@]1(N)c1ccc(=O)[nH]c1C2 [Huperzine A, reference compound] | 0.9 | 231.9 s | 1.3 | 120.5 s |  |  |  |  |  |  |  |  |  |  |  |  |  |  | 
PyroGlu-Asn-Cys(S-Bu^t)-Pro-Arg [MEP-531] |  |  |  |  | obviously improve | better effects than Huperzine A | 0.9 | 197.6 s | 0.3 | 78.8 s | 0.5 | 245.5 s | 0.2 | 241.6 s | 0.3 | 282.8 s | 0.3 | 267.6 s | remarkably ameliorate
